Experimental findings from paper PMC6387623 (Proteins, 2018) are described below.

Broadly, the IC50 is the concentration at which inhibition is half-maximal. A high value points to lower potency.

This assay has as its target RGS4 (single-cysteine RGS4 C95) (Rattus norvegicus, UniProt P49799, C71A/C132A/C148A/C183A/C197A/C204A). The assay can be described thus: Flow cytometry protein interaction assay. The format is binding.

Chain of RGS4 (single-cysteine RGS4 C95) (P49799 52-205 C71A/C132A/C148A/C183A/C197A/C204A): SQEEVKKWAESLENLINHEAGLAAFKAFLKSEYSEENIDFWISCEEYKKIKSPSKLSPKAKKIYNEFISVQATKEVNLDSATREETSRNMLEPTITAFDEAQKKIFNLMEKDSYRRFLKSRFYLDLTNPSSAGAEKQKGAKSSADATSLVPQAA

For `Cc1ccc(-n2sc(=O)n(Cc3ccc(F)cc3)c2=O)cc1` [compound 1, CCG-50014], the half-maximal inhibitory concentration (IC50) is about 4.5 µM.
